Experimental data reported in ChEMBL document CHEMBL2074143, “Up-regulation of organic anion transporter 1 protein is induced by chronic furosemide or hydrochlorothiazide infusion in rat kidney” (Nephrol Dial Transplant, 2003).

Legend:
[1] = target: T1, Solute carrier family 22 member 6 (Rattus norvegicus, UniProt O35956); assay: TP_TRANSPORTER: quantitative PCR in vivo, SD rat, kidney; assay type: functional, organism-based, Sprague-Dawley
T1 sequence (O35956 whole entry): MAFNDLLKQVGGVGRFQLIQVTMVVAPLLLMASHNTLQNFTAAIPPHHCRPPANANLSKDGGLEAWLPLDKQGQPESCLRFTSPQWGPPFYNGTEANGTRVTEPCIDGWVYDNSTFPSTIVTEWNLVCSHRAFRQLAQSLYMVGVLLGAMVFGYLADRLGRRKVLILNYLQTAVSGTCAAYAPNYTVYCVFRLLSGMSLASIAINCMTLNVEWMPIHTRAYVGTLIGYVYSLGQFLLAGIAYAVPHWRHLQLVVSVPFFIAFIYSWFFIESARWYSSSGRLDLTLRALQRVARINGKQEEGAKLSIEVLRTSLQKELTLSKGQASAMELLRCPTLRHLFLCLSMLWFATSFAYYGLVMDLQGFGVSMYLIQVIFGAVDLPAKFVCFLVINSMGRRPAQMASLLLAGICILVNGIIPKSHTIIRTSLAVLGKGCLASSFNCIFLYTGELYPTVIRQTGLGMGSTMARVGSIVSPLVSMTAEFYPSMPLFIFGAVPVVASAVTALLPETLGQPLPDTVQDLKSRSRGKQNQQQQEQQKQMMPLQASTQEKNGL

[2] = target: T1, Solute carrier family 22 member 6; assay: TP_TRANSPORTER: Western in vivo, SD rat, kidney; assay type: functional, organism-based, Sprague-Dawley

Which results are given for NS(=O)(=O)c1cc(C(=O)O)c(NCc2ccco2)cc1Cl [FUROSEMIDE]?
Activity [1]: inducer []; Activity [2]: inducer []
